Assay results: paper PMC4754833, “Rilpivirine analogs potently inhibit drug-resistant HIV-1 mutants” (Retrovirology, 2016)

Tests used:
HIV-1 RT mutant G190A = experiment: single round infection assay, G190A; assay type: cell-based; conditions: for fold-change of IC50 of the mutant relative to WT: G190A vs WT; for IC50: Human immunodeficiency virus 1
HIV-1 RT mutant L100I = test system: HIV-1 RT mutant L100I; set-up: method as in PMID 23217210; conditions: previous study; cited from earlier work
HIV-1 RT mutant K101P = experiment: single round infection assay, K101P; assay type: cell-based; conditions: Human immunodeficiency virus 1
HIV-1 RT mutant E138K = experiment: single round infection assay, E138K; assay type: cell-based; conditions: for fold-change of IC50 of the mutant relative to WT: E138K vs WT; for IC50: ± SD, n=4
[1] = test system: HIV-1 RT mutant K101E/M184V; experiment: single round infection assay, K101E/M184V; assay type: cell-based; conditions: for IC50: ± SD, n=4; for fold-change of IC50 of the mutant relative to WT: K101E/M184V vs WT
Procedure: (§1) The human osteosarcoma cell line, HOS, was obtained from Dr. Richard Schwartz (Michigan State University, East Lansing, MI) and grown in Dulbecco’s modified Eagle’s medium (Invitrogen, Carlsbad, CA) supplemented with 5 % (v/v) fetal bovine serum, 5 % newborn calf serum, and penicillin (50 units/ml) plus streptomycin (50 µg/ml; Quality Biological, Gaithersburg, MD). Virion production and single-round infectivity assays were used to determine antiviral activity (IC50 values) of the compounds as previously described.
(§2) pNLNgoMIVR-ΔEnv.LUC has been described previously. The RT open reading frame was removed from pNLNgoMIVR-ΔEnv.LUC (digestion with SpeI and SalI) and inserted between the SpeI and SalI sites of pBluescript II KS+. Using that construct as the wild-type template, we prepared the following HIV-1 RT mutants using the QuikChange II XL (Stratagene, La Jolla, CA) site-directed mutagenesis protocol kit: L100I, K103N, Y181C, Y188L, H221Y, K103N/Y181C, G190A, G190S, M230L, P236L, L100I/K103N, K103N/P225H, V106A/G190A/F227L, V106A, L234I, V106A/F227L, V106A/L234I, V106A/F227L/L234I, E40K, D67E, K101E, V111A, E138K, M184I, M184V, K101E/M184I, K101E/M184V, E138K/M184I, E138K/M184V, K101P, Y181I, and K101P/V179I. The following sense oligonucleotides were used with matching cognate antisense oligonucleotides (not shown) (Integrated DNA Technologies, Coralville, IA) in the mutagenesis: L100I, 5′-[…]-3′; L100I 2-103, 5′-[…]-3′; K103N, 5′-[…]-3′; Y181C, 5′-[…]-3′; Y188L, 5′-[…]-3′; H221Y, 5′-[…]-3′; G190A, 5′-[…]-3′; G190S, 5′-[…]-3′; P225H, 5′-[…]-3′; F227, 5′-[…]-3′; M230L, 5′-[…]-3′; P236L, 5′-[…]-3′; V106A, 5′-[…]-3′; L234I, 5′-[…]-3′; E40K, 5′-[…]-3′; D67E, 5′-[…]-3′; K101E, 5′-[…]-3′; V111A, 5′-[…]-3′; E138K, 5′-[…]-3′; M184I, 5′-[…]-3′; M184V, 5′-[…]-3′; K101P, 5′-[…]-3′; Y181I, 5′-[…]-3′; K101P/V179I, 5′-[…]-3′. The double mutants K103N/Y181C, K103N/P225H, and L100I/K103N were made using the previously generated K103N mutant and the appropriate oligonucleotides to add the second mutation, Y181C, P225, and L100I respectively. The double mutants V106A/F227L and V106A/L234I were prepared using the previously generated V106A mutant and the appropriate oligonucleotides to add the second mutation, F227L and L234I, respectively. The double mutants K101E/M184I and K101E/M184V were constructed using the previously generated K101E mutant and the appropriate oligonucleotides to add the second mutation, M184I and M184V, respectively. The double mutants E138K/M184I and E138K/M184V were constructed using the previously generated E138K mutant and the appropriate oligonucleotides for the second mutation, M184I and M184V, respectively. The triple mutant V106A/F227L/L234I was made using the previously generated V106A/F227L double mutant and the appropriate oligonucleotides for the third mutation, L234I. The triple mutant V106A/G190A/F227L was constructed in a series of steps using the previously generated V106A mutant and the appropriate oligonucleotides for the second mutation, G190A, to generate the double mutant V106A/G190A, and then the triple mutant was made using double mutant V106A/G190A and oligonucleotides for the third mutation, F227L. The DNA sequence of each construct was verified by DNA sequence determination. The sequences encoding the mutant RTs were then subcloned into pNLNgoMIVR-ΔEnv.LUC (between the KpnI and SalI sites) to produce the mutant HIV-1 constructs. These DNA sequences were also checked independently by DNA sequence determination.
(§3) 10.1186/s12977-016-0244-2 The IC50 values (nM) of RPV and the RPV analogs were determined against the NNRTI resistant mutants were measured by using a single round infection assay, n = 4. The concentrations (nM) are measured by reductions in luciferase reporter activity followed by the standard deviations. […]

[2] = test system: HIV-1 RT mutant K101E/M184I; experiment: single round infection assay, K101E/M184I; assay type: cell-based; conditions: for IC50: Human immunodeficiency virus 1, K101E/M184I, ± SD, n=4; for fold-change of IC50 of the mutant relative to WT: K101E/M184I vs WT
Procedure: as §1, §2, §3

HIV-1 RT mutant K101E = experiment: single round infection assay, K101E; assay type: cell-based; conditions: for IC50: ± SD, n=4; for fold-change of IC50 of the mutant relative to WT: K101E vs WT
Procedure: as §1, §2, §3

HIV-1 RT mutant E40K = experiment: single round infection assay, E40K; assay type: cell-based; conditions: for fold-change of IC50 of the mutant relative to WT: E40K vs WT; for IC50: Human immunodeficiency virus 1, E40K, ± SD, n=4
Procedure: as §1, §2, §3

HIV-1 RT mutant K103N = test system: HIV-1 RT mutant K103N; set-up: method as in PMID 23217210; conditions: previous study; cited from earlier work
HIV-1 RT mutant Y181I = experiment: single round infection assay, Y181I; assay type: cell-based; conditions: for IC50: Human immunodeficiency virus 1; for fold-change of IC50 of the mutant relative to WT: Y181I vs WT
[3] = test system: HIV-1 RT mutant V106A/F227L; experiment: single round infection assay, V106A/F227L; assay type: cell-based; conditions: for IC50: ± SD, n=4; for fold-change of IC50 of the mutant relative to WT: V106A/F227L vs WT
WT HIV-1 = conditions: previous study; cited from earlier work
HIV-1 RT mutant V106A = experiment: single round infection assay, V106A; assay type: cell-based; conditions: for fold-change of IC50 of the mutant relative to WT: V106A vs WT; for IC50: ± SD, n=4
Procedure: as §1, §2, §3

[4] = Human immunodeficiency virus 1, E138K
[5] = Human immunodeficiency virus 1, K101E/M184V
[6] = Human immunodeficiency virus 1, K101E
[7] = Human immunodeficiency virus 1, V106A/F227L (selected by DOR)
[8] = Human immunodeficiency virus 1, V106A (selected by DOR)

| SMILES | fold-change of IC50 of the mutant relative to WT (HIV-1 RT mutant G190A) | IC50 (HIV-1 RT mutant G190A) [nM] | IC50 (HIV-1 RT mutant L100I) [nM] | IC50 (HIV-1 RT mutant K101P) [nM] | fold-change of IC50 of the mutant relative to WT (HIV-1 RT mutant E138K) | IC50 (HIV-1 RT mutant E138K; [4]) [nM] | IC50 [1, 5] [nM] | fold-change of IC50 of the mutant relative to WT [1] | IC50 [2] [nM] | fold-change of IC50 of the mutant relative to WT [2] | IC50 (HIV-1 RT mutant K101E; [6]) [nM] | fold-change of IC50 of the mutant relative to WT (HIV-1 RT mutant K101E) | fold-change of IC50 of the mutant relative to WT (HIV-1 RT mutant E40K) | IC50 (HIV-1 RT mutant E40K) [nM] | IC50 (HIV-1 RT mutant K103N) [nM] | IC50 (HIV-1 RT mutant Y181I) [nM] | fold-change of IC50 of the mutant relative to WT [3] | IC50 (WT HIV-1) [nM] | fold-change of IC50 of the mutant relative to WT (HIV-1 RT mutant V106A) | IC50 (HIV-1 RT mutant E138K; E138K) [nM] | further results |
| --- | --- | --- | --- | --- | --- | --- | --- | --- | --- | --- | --- | --- | --- | --- | --- | --- | --- | --- | --- | --- | --- |
| COc1ccc(Cn2cnc3c(Nc4ccc(C#N)cc4)nc(Nc4c(C)cc(/C=C/C#N)cc4C)nc32)cc1 [compound 12] | < 2 | 0.9 ± 0.43 | < 7 | > 100 | 12 | 7.8 ± 0.64 | 1.8 ± 0.21 | 3 | 2.7 ± 0.71 | 4 | 3.3 ± 0.3 | 5 | < 2 | 1 ± 0.04 | < 7 | > 100 | 11 | < 7 | < 2 |  | IC50 [3, 7]: < 5 nM; IC50 ([3]; V106A/F227L (selected by DOR)): 7.6 ± 0.5 nM |
| CC(=O)c1ccc(Nc2nc(Nc3c(C)cc(/C=C/C#N)cc3C)nc3[nH]cnc23)cc1 [compound 14] |  | 0.13 ± 0.04 | < 7 | > 100 | 6 | < 2.5 |  | < 2 |  | < 2 | < 2.5 | 4 | < 2 |  | < 7 | > 100 | 12 | < 7 | 10 | 2.6 ± 0.6 | IC50 (HIV-1 RT mutant K101E; K101E): 1.7 ± 0.5 nM; IC50 [3, 7]: < 5 nM; IC50 ([3]; V106A/F227L (selected by DOR)): 4.9 ± 1.3 nM; IC50 (HIV-1 RT mutant V106A; [8]): < 5 nM; IC50 (HIV-1 RT mutant V106A; V106A (selected by DOR)): 4.3 ± 0.5 nM |
| COc1ccc(Nc2nc(Nc3c(C)cc(/C=C/C#N)cc3C)nc3[nH]cnc23)cc1 [compound 16] | 2 | 0.37 ± 0.08 | < 7 | > 100 | 11 | < 2.5 |  | 2 |  | < 2 |  | 5 | < 2 |  | < 7 | 63.2 | 4 | < 7 | 3 | 1.9 ± 0.01 | fold-change of IC50 of the mutant relative to WT (HIV-1 RT mutant Y181I): 372 |
| Cc1cc(/C=C/C#N)cc(C)c1Nc1nc(Nc2ccc(F)cc2)c2nc[nH]c2n1 [compound 17] |  | 1.6 ± 0.3 | < 7 | 100 | 6 | 13.5 | 8.1 | 4 | 15 | 7 | 8.9 | 4 | 3 | 6.4 | < 7 | 78.9 | 19 | < 7 | 2 |  | fold-change of IC50 of the mutant relative to WT (HIV-1 RT mutant Y181I): 36; IC50 (HIV-1 RT mutant V106A; [8]): < 5 nM; IC50 (HIV-1 RT mutant V106A; V106A (selected by DOR)): 2.7 ± 0.64 nM |
| Cc1cc(/C=C/C#N)cc(C)c1Nc1nc(Nc2ccc3scnc3c2)c2nc[nH]c2n1 [compound 21] |  | 0.3 ± 0.12 | < 7 | > 100 | 6 | < 2.5 | < 2.5 | 6 |  | 2 | 3.9 ± 0.14 | 10 | 2 |  | < 7 | > 100 | 27 | < 7 | 3 | 2.4 ± 0.4 | IC50 ([1]; K101E/M184V): 2.4 ± 0.2 nM |
